According to the supplement of paper PMC10307832:

Experiments:
Assay in all cases: relative viability (nuclei count vs DMSO), 5 days (fraction); higher = more cells survive
[1] = compound: Cn1c(=O)n(-c2ccc(C(C)(C)C#N)cc2)c2c3cc(-c4cnc5ccccc5c4)ccc3ncc21 [Dactolisib] + C[C@@H](Oc1cc(-c2cnn(C3CCNCC3)c2)cnc1N)c1c(Cl)ccc(F)c1Cl [Crizotinib] (partner 1 µM)
In short: (§1)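 One day after seeding in 1536-well plates, lung cancer cell lines were dosed by pin tool. Dosing was either single-drug or a fixed anchor-drug dose plus five library-drug doses (not always all listed) in √10 steps. After 5 days, nuclei were stained in one fix-and-stain step and counted on 4× images, and relative viability is the nuclei count of treated wells over that of vehicle wells, given as the median of duplicate plates.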

[2] = compound: Cn1c(=O)n(-c2ccc(C(C)(C)C#N)cc2)c2c3cc(-c4cnc5ccccc5c4)ccc3ncc21 [Dactolisib] + Nc1ncn([C@H]2C[C@H](O)[C@@H](CO)O2)c(=O)n1 [Decitabine] (partner 2 µM)
In short: as §1

[3] = compound: Cn1c(=O)n(-c2ccc(C(C)(C)C#N)cc2)c2c3cc(-c4cnc5ccccc5c4)ccc3ncc21 [Dactolisib] + CC(C)C[C@H](NC(=O)[C@H](Cc1ccccc1)NC(=O)c1cnccn1)B(O)O [Bortezomib] (partner 0.002 µM)
In short: as §1

[4] = compound: Cn1c(=O)n(-c2ccc(C(C)(C)C#N)cc2)c2c3cc(-c4cnc5ccccc5c4)ccc3ncc21 [Dactolisib] + O=C(c1cc(Cc2n[nH]c(=O)c3ccccc23)ccc1F)N1CCN(C(=O)C2CC2)CC1 [Olaparib] (partner 8 µM)
In short: as §1

UMC-11
relative viability ([1]; first compound 0.002 µM): 0.556
relative viability ([1]; first compound 0.006325 µM): 0.585
relative viability ([1]; first compound 0.02 µM): 0.403
relative viability ([1]; first compound 0.06325 µM): 0.275
relative viability ([1]; first compound 0.2 µM): 0.155
relative viability ([2]; first compound 0.002 µM): 0.577
relative viability ([2]; first compound 0.006325 µM): 0.601
relative viability ([2]; first compound 0.02 µM): 0.514
relative viability ([2]; first compound 0.06325 µM): 0.366
relative viability ([2]; first compound 0.2 µM): 0.346
relative viability ([3]; first compound 0.002 µM): 0.732
relative viability ([3]; first compound 0.006325 µM): 0.649
relative viability ([3]; first compound 0.02 µM): 0.57
relative viability ([3]; first compound 0.06325 µM): 0.261
relative viability ([3]; first compound 0.2 µM): 0.18
relative viability ([4]; first compound 0.002 µM): 0.36
relative viability ([4]; first compound 0.006325 µM): 0.317
relative viability ([4]; first compound 0.02 µM): 0.306
relative viability ([4]; first compound 0.06325 µM): 0.202
relative viability ([4]; first compound 0.2 µM): 0.193
